The subject of the first assay is CCRF-CEM. Put plainly: selective drug sensitivity score (sDSS, relative to normal bone marrow) (sDSS (score)); higher = more potent and effective on the cell line relative to normal bone marrow cells. Conditions: 72 h.
On to `Cn1cncc1[C@@](N)(c1ccc(Cl)cc1)c1ccc2c(c1)c(-c1cccc(Cl)c1)cc(=O)n2C` [Tipifarnib] (top concentration 10000 nM), for which the “selective drug sensitivity score” value amounted to 10.3.

Take `COc1ccccc1S(=O)(=O)Nc1ccc2c(c1)CN(C)C(=O)N2` [PFI-1] (top concentration 30000 nM): the “selective drug sensitivity score” value amounted to 1.4.

In the case of `Cc1cn(-c2cc(NC(=O)c3ccc(C)c(Nc4nccc(-c5cnccn5)n4)c3)cc(C(F)(F)F)c2)cn1` [Radotinib] (top concentration 10000 nM), the “selective drug sensitivity score” value was 0.

As for `CC[C@H](Nc1ncnc2[nH]cnc12)c1nc2cccc(F)c2c(=O)n1-c1ccccc1` [Idelalisib] (top concentration 10000 nM), the “selective drug sensitivity score” value was found to be 3.64.

Turning to `Cc1noc2c1-c1ccccc1C(c1ccc(Cl)cc1)=N[C@H]2CC(N)=O` [CPI-0610] (top concentration 10000 nM), the “selective drug sensitivity score” value was -0.1.

For `C=C(c1ccc(C(=O)O)cc1)c1cc2c(cc1C)C(C)(C)CCC2(C)C` [Bexarotene] (top concentration 10000 nM), the “selective drug sensitivity score” value was -3.4.

As for `CC1(COc2ccc3c(c2)ncn3-c2ccc3cccc(N4CCC(N)CC4)c3n2)COC1` [Crenolanib] (top concentration 10000 nM), the “selective drug sensitivity score” value was -1.82.

On to `O=C(Nc1cc(Oc2cc(F)c(NC(=O)C3(C(=O)Nc4ccc(F)cc4)CC3)cc2F)ccn1)C1CC1` [Altiratinib] (top concentration 10000 nM), for which the “selective drug sensitivity score” value was -0.16.

For `O=C(Nc1ccncc1)C(=O)c1cn(Cc2ccc(Cl)cc2)c2ccccc12` [Indibulin] (top concentration 10000 nM), the “selective drug sensitivity score” value was 6.04.

In the case of `Cc1ncc(-c2ccnc(Nc3ccc(S(C)(=O)=O)cc3)n2)n1C(C)C` [AZD-5438] (top concentration 10000 nM), the “selective drug sensitivity score” value is 3.54.

For the compound `NC[C@@](O)(c1ccc(Cl)cc1)c1ccc(-c2cn[nH]c2)cc1` (top concentration 10000 nM), the “selective drug sensitivity score” value turned out to be 3.88.

Turning to `Cn1c(Nc2ccc(C(F)(F)F)cc2)nc2cc(Oc3ccnc(-c4ncc(C(F)(F)F)[nH]4)c3)ccc21` [NVP-RAF265] (top concentration 1000 nM), the “selective drug sensitivity score” value stood at 4.88.

For the compound `CNCc1ccc(-c2[nH]c3cc(F)cc4c3c2CCNC4=O)cc1` [Rucaparib] (top concentration 10000 nM), the “selective drug sensitivity score” value stood at 1.32.

In the case of `O=C(CCCCCCC(=O)Nc1ccc([C@H]2O[C@@H](CSc3nc(-c4ccccc4)c(-c4ccccc4)o3)C[C@@H](c3ccc(CO)cc3)O2)cc1)NO` [Tubacin] (top concentration 10000 nM), the “selective drug sensitivity score” value was 8.74.

Turning to `N#CCNC(=O)c1ccc(-c2ccnc(Nc3ccc(N4CCOCC4)cc3)n2)cc1` [Momelotinib] (top concentration 10000 nM), the “selective drug sensitivity score” value is -2.52.

In the case of `Nc1cccc2c1CN(C1CCC(=O)NC1=O)C2=O` (stereo not given) [Lenalidomide] (top concentration 100000 nM), the “selective drug sensitivity score” value was 0.92.

In the case of `CCN1CCN(Cc2ccc(Nc3ncc(F)c(-c4cc(F)c5nc(C)n(C(C)C)c5c4)n3)nc2)CC1` [Abemaciclib] (top concentration 2500 nM), the “selective drug sensitivity score” value is -2.36.

For the compound `Cc1cc(Nc2ncc(Cl)c(Nc3ccccc3S(=O)(=O)C(C)C)n2)c(OC(C)C)cc1C1CCNCC1` [Ceritinib] (top concentration 2500 nM), the “selective drug sensitivity score” value was -3.34.

As to `Cc1nc(Nc2ncc(C(=O)Nc3c(C)cccc3Cl)s2)cc(N2CCN(CCO)CC2)n1` [Dasatinib] (top concentration 1000 nM), the “selective drug sensitivity score” value was -2.8.

Turning to `N[C@@H]1CCCN(c2c(/C=C3\SC(=O)NC3=O)cccc2-c2ccccc2)C1` [AZD1208] (top concentration 10000 nM), the “selective drug sensitivity score” value is -4.4.

As to `CC(C)C[C@H](NC(=O)CNC(=O)c1cc(Cl)ccc1Cl)B(O)O` [Ixazomib] (top concentration 1000 nM), the “selective drug sensitivity score” value worked out at 10.5.

Turning to `C=CC(=O)N1CCC[C@@H](n2nc(-c3ccc(Oc4ccccc4)cc3)c3c(N)ncnc32)C1` [Ibrutinib] (top concentration 1000 nM), the “selective drug sensitivity score” value is 0.1.

As to `Cn1cnc2c(F)c(Nc3ccc(Br)cc3F)c(C(=O)NOCCO)cc21` [Binimetinib] (top concentration 1000 nM), the “selective drug sensitivity score” value came out at 1.38.

`COc1cc(Nc2ncc(F)c(Nc3ccc4c(n3)N(COP(=O)(O)O)C(=O)C(C)(C)O4)n2)cc(OC)c1OC` [Fostamatinib] (top concentration 2500 nM): the “selective drug sensitivity score” value was -2.34.

`COc1cc2c(Oc3ccc(NC(=O)C4(C(=O)Nc5ccc(F)cc5)CC4)cc3F)ccnc2cc1OCCCN1CCOCC1` [Foretinib] (top concentration 1000 nM): the “selective drug sensitivity score” value was determined as 0.64.

Consider `Sc1ncnc2nc[nH]c12` [Mercaptopurine] (top concentration 10000 nM), for which the “selective drug sensitivity score” value was determined as 14.1.

Take `COCCNCc1ccc(-c2cc3nccc(Oc4ccc(NC(=S)NC(=O)Cc5ccc(F)cc5)cc4F)c3s2)nc1` [Glesatinib] (top concentration 2500 nM): the “selective drug sensitivity score” value was -1.06.

`Cn1nccc1Nc1nccc(-c2ccn([C@H](CO)c3ccc(Cl)c(F)c3)c(=O)c2)n1` [Ravoxertinib] (top concentration 10000 nM): the “selective drug sensitivity score” value was 2.

Consider `CC1=NN(c2ccc(C(=O)O)cc2)C(=O)C1=Cc1ccc(-c2cc(C)c(C)cc2[N+](=O)[O-])o1` [C646] (top concentration 25000 nM), for which the “selective drug sensitivity score” value came to 1.74.

For `CC(C)c1cc(C(=O)N2Cc3ccc(CN4CCN(C)CC4)cc3C2)c(O)cc1O` [Onalespib] (top concentration 2500 nM), the “selective drug sensitivity score” value came out at 4.62.

Take `CCN1C(=O)CNc2ncc(-c3ccc(-c4nc[nH]n4)nc3C)nc21` [CC-115] (top concentration 10000 nM): the “selective drug sensitivity score” value worked out at 4.24.

Turning to `COc1cc(N2CCC(N3CCN(C)CC3)CC2)ccc1Nc1ncc(Cl)c(Nc2ccccc2P(C)(C)=O)n1` [Brigatinib] (top concentration 1000 nM), the “selective drug sensitivity score” value is -3.34.

As for `CN1CCN(c2nc(C3=C(c4c[nH]c5ccccc45)C(=O)NC3=O)c3ccccc3n2)CC1` [Sotrastaurin] (top concentration 10000 nM), the “selective drug sensitivity score” value was -0.1.

`CCN(CC)Cc1ccc2cc(COC(=O)Nc3ccc(C(=O)NO)cc3)ccc2c1` [Givinostat] (top concentration 1000 nM): the “selective drug sensitivity score” value turned out to be 3.6.

For the compound `CNC(=O)c1cc(Oc2ccc(NC(=O)Nc3ccc(Cl)c(C(F)(F)F)c3)cc2)ccn1` [Sorafenib] (top concentration 1000 nM), the “selective drug sensitivity score” value came to 0.

On to `COc1ccc(S(=O)(=O)Nc2cccnc2Nc2ccc(O)cc2)cc1` [ABT-751] (top concentration 10000 nM), for which the “selective drug sensitivity score” value came to 12.2.

Take `C[C@@H](Oc1ccc2[nH]nc(/C=C/c3cnn(CCO)c3)c2c1)c1c(Cl)cncc1Cl` (top concentration 1000 nM): the “selective drug sensitivity score” value is -2.74.

For a further assay, the system named is COG-LL-394h. The description is as above. Conditions: 72 h.
On to `Cn1cncc1[C@@](N)(c1ccc(Cl)cc1)c1ccc2c(c1)c(-c1cccc(Cl)c1)cc(=O)n2C` [Tipifarnib] (top concentration 10000 nM), for which the “selective drug sensitivity score” value was -1.1.

With `COc1ccccc1S(=O)(=O)Nc1ccc2c(c1)CN(C)C(=O)N2` [PFI-1] (top concentration 30000 nM), the “selective drug sensitivity score” value was 0.3.

Turning to `Cc1cn(-c2cc(NC(=O)c3ccc(C)c(Nc4nccc(-c5cnccn5)n4)c3)cc(C(F)(F)F)c2)cn1` [Radotinib] (top concentration 10000 nM), the “selective drug sensitivity score” value stood at 1.8.

`CC[C@H](Nc1ncnc2[nH]cnc12)c1nc2cccc(F)c2c(=O)n1-c1ccccc1` [Idelalisib] (top concentration 10000 nM): the “selective drug sensitivity score” value was -2.16.

In the case of `Cc1noc2c1-c1ccccc1C(c1ccc(Cl)cc1)=N[C@H]2CC(N)=O` [CPI-0610] (top concentration 10000 nM), the “selective drug sensitivity score” value is 0.5.

On to `C=C(c1ccc(C(=O)O)cc1)c1cc2c(cc1C)C(C)(C)CCC2(C)C` [Bexarotene] (top concentration 10000 nM), for which the “selective drug sensitivity score” value was -5.3.

For `CC1(COc2ccc3c(c2)ncn3-c2ccc3cccc(N4CCC(N)CC4)c3n2)COC1` [Crenolanib] (top concentration 10000 nM), the “selective drug sensitivity score” value is -3.62.

On to `O=C(Nc1cc(Oc2cc(F)c(NC(=O)C3(C(=O)Nc4ccc(F)cc4)CC3)cc2F)ccn1)C1CC1` [Altiratinib] (top concentration 10000 nM), for which the “selective drug sensitivity score” value stood at 1.84.

With `O=C(Nc1ccncc1)C(=O)c1cn(Cc2ccc(Cl)cc2)c2ccccc12` [Indibulin] (top concentration 10000 nM), the “selective drug sensitivity score” value was 1.54.

With `Cc1ncc(-c2ccnc(Nc3ccc(S(C)(=O)=O)cc3)n2)n1C(C)C` [AZD-5438] (top concentration 10000 nM), the “selective drug sensitivity score” value is -5.86.

On to `NC[C@@](O)(c1ccc(Cl)cc1)c1ccc(-c2cn[nH]c2)cc1` (top concentration 10000 nM), for which the “selective drug sensitivity score” value is -1.22.

Take `Cn1c(Nc2ccc(C(F)(F)F)cc2)nc2cc(Oc3ccnc(-c4ncc(C(F)(F)F)[nH]4)c3)ccc21` [NVP-RAF265] (top concentration 1000 nM): the “selective drug sensitivity score” value was found to be 5.98.

As to `CNCc1ccc(-c2[nH]c3cc(F)cc4c3c2CCNC4=O)cc1` [Rucaparib] (top concentration 10000 nM), the “selective drug sensitivity score” value amounted to 0.92.

For `O=C(CCCCCCC(=O)Nc1ccc([C@H]2O[C@@H](CSc3nc(-c4ccccc4)c(-c4ccccc4)o3)C[C@@H](c3ccc(CO)cc3)O2)cc1)NO` [Tubacin] (top concentration 10000 nM), the “selective drug sensitivity score” value is 5.44.

As for `N#CCNC(=O)c1ccc(-c2ccnc(Nc3ccc(N4CCOCC4)cc3)n2)cc1` [Momelotinib] (top concentration 10000 nM), the “selective drug sensitivity score” value is -3.92.

Consider `Nc1cccc2c1CN(C1CCC(=O)NC1=O)C2=O` (stereo not given) [Lenalidomide] (top concentration 100000 nM), for which the “selective drug sensitivity score” value is -2.28.

Regarding `CCN1CCN(Cc2ccc(Nc3ncc(F)c(-c4cc(F)c5nc(C)n(C(C)C)c5c4)n3)nc2)CC1` [Abemaciclib] (top concentration 2500 nM), the “selective drug sensitivity score” value was -3.26.

Turning to `Cc1cc(Nc2ncc(Cl)c(Nc3ccccc3S(=O)(=O)C(C)C)n2)c(OC(C)C)cc1C1CCNCC1` [Ceritinib] (top concentration 2500 nM), the “selective drug sensitivity score” value was 5.16.

Values taken from the supplement of paper PMC8967900.
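Further: ALL cell lines in 384-well plates, five doses spanning 10,000-fold, each plate scaled between vehicle and 100 µmol/L benzalkonium chloride controls, sDSS an adapted area-under-curve metric.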
